Assay results reported in ChEMBL document CHEMBL1201862, “PubChem BioAssay data set” (2004).
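Tested at 5 concentrations; 48 h exposure; 96-well plates; endpoints linearly interpolated, else capped at highest concentration. GI50 is the concentration that inhibits growth by half.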 The source made the active and inactive calls. Rule as the data show it: active = GI50 up to about 1.1 µM and inactive = higher.

Tests used:
Assay in all cases: NCI tumour cell line growth inhibition, 48 h
A498 = tested on: A498
ACHN = tested on: ACHN
HCC 2998 = tested on: HCC 2998
HL-60 = tested on: HL-60
HOP-92 = tested on: HOP-92
Hs-578T = tested on: Hs-578T
M14 = tested on: M14
MCF7 = tested on: MCF7
MDA-MB-435 = tested on: MDA-MB-435
OVCAR-8 = tested on: OVCAR-8
PC-3 = tested on: PC-3
RPMI-8226 = tested on: RPMI-8226
RXF 393 = tested on: RXF 393
SF-268 = tested on: SF-268
SK-MEL-2 = tested on: SK-MEL-2
SR = tested on: SR
TK-10 = tested on: TK-10
U-251 = tested on: U-251
UACC-257 = tested on: UACC-257
UACC-62 = tested on: UACC-62

Measured: GI50

O=C(CCc1ccccc1)NCCc1ccc(O)c(O)c1
inactive: A498 78.2 µM | ACHN 14.2 µM | HCC 2998 53.5 µM | HL-60 3.43 µM | HOP-92 17.4 µM | Hs-578T > 50.1 µM | M14 > 54.8 µM | MCF7 31.8 µM | MDA-MB-435 15.6 µM | OVCAR-8 30.3 µM | PC-3 > 42.1 µM | RPMI-8226 2.54 µM | RXF 393 > 100 µM | SF-268 33.8 µM | SK-MEL-2 22 µM | SR 4.01 µM | TK-10 > 100 µM | U-251 41.2 µM | UACC-257 44.6 µM | UACC-62 34.3 µM

Cc1[nH]c2ccccc2c1-c1cc(-c2cc(-c3c(C)[nH]c4ccccc34)on2)no1
inactive: A498 > 100 µM | ACHN > 100 µM | HCC 2998 61 µM | HL-60 34.5 µM | HOP-92 83.8 µM | Hs-578T 37.2 µM | M14 37.7 µM | MCF7 55 µM | MDA-MB-435 25.8 µM | OVCAR-8 > 100 µM | PC-3 63 µM | RPMI-8226 85.1 µM | RXF 393 37.7 µM | SF-268 52.7 µM | SK-MEL-2 > 100 µM | SR 38.8 µM | TK-10 > 100 µM | U-251 77.8 µM | UACC-257 43.1 µM | UACC-62 51.4 µM

N#Cc1c(Nc2ccccc2)[n+]([O-])c2ccc(Cl)cc2[n+]1[O-]
inactive: A498 7.69 µM | ACHN 2.85 µM | HCC 2998 4.06 µM | HL-60 2.01 µM | HOP-92 1.73 µM | Hs-578T 16.6 µM | M14 7.57 µM | MCF7 3.64 µM | MDA-MB-435 8.99 µM | OVCAR-8 2.77 µM | PC-3 3.36 µM | RPMI-8226 3.28 µM | RXF 393 9.77 µM | SF-268 4.38 µM | SK-MEL-2 18 µM | SR 3.16 µM | TK-10 4.06 µM | U-251 3.15 µM | UACC-257 7.28 µM | UACC-62 3.71 µM

C=C1CCc2ccccc2C1=O
inactive: A498 > 100 µM | ACHN > 100 µM | HCC 2998 > 100 µM | HL-60 > 100 µM | HOP-92 > 100 µM | Hs-578T > 100 µM | M14 > 100 µM | MCF7 56 µM | MDA-MB-435 29.3 µM | OVCAR-8 > 100 µM | PC-3 > 100 µM | RPMI-8226 > 100 µM | RXF 393 > 100 µM | SF-268 > 100 µM | SK-MEL-2 > 100 µM | SR 19.2 µM | TK-10 > 100 µM | U-251 > 100 µM | UACC-257 > 100 µM | UACC-62 > 100 µM

C[C@]12CC[C@@H]3c4ccc(OC(=O)c5ccccc5)cc4CC[C@H]3[C@@H]1CC[C@@H]2Oc1c2ccccc2nc2ccccc12
inactive: A498 17.4 µM | ACHN 37 µM | HCC 2998 7.05 µM | HL-60 2.95 µM | HOP-92 12.9 µM | Hs-578T 5.5 µM | M14 7.43 µM | MCF7 17 µM | MDA-MB-435 5.46 µM | OVCAR-8 13 µM | PC-3 8.93 µM | RPMI-8226 7.69 µM | RXF 393 8.09 µM | SF-268 3.93 µM | SK-MEL-2 16.2 µM | SR 10 µM | TK-10 17.2 µM | U-251 8.41 µM | UACC-257 13.6 µM | UACC-62 17.7 µM

NNC(=O)CSc1nc2ccc(I)cc2c(=O)n1Cc1ccccc1
inactive: A498 14.2 µM | ACHN 18.7 µM | HCC 2998 16.8 µM | HL-60 20.6 µM | HOP-92 30.5 µM | Hs-578T 20.9 µM | M14 18.2 µM | MCF7 22.2 µM | MDA-MB-435 35.2 µM | OVCAR-8 48.4 µM | PC-3 22.8 µM | RPMI-8226 21.6 µM | RXF 393 13.1 µM | SF-268 17.5 µM | SK-MEL-2 20.4 µM | SR 26.5 µM | TK-10 16.9 µM | U-251 20.3 µM | UACC-257 19.9 µM | UACC-62 18.6 µM
